test system: Pseudomonas aeruginosa; assay: Potentiation of rifampicin-induced antibacterial activity against Pseudomonas aeruginosa PAO1 assessed as fold change in rifampicin MIC in low salt containing media by Mueller-Hinton broth based assay; type: functional

SMILES	fold change (FC)
CCCCCCCCCCCCO[C@@H]1O[C@H](CN)[C@H](N)[C@H](OCc2ccc3ccccc3c2)[C@H]1N	1

test system: Acinetobacter baumannii; assay: Potentiation of rifampicin-induced antibacterial activity against Acinetobacter baumannii ATCC 17978 assessed as fold change in rifampicin MIC in low salt containing media by Mueller-Hinton broth based assay; type: functional

SMILES	fold change (FC)
CCCCCCCCCCCCO[C@@H]1O[C@H](CN)[C@H](N)[C@H](OCc2ccc3ccccc3c2)[C@H]1N	8

test system: Pseudomonas aeruginosa; assay: Antibacterial activity against Pseudomonas aeruginosa PAO1 in low salt containing media by Mueller-Hinton broth based assay; type: functional

SMILES	MIC [µg/mL]
CCCCCCCCCCCCO[C@@H]1O[C@H](CN)[C@H](N)[C@H](OCc2ccc3ccccc3c2)[C@H]1N	8

test system: Escherichia coli; assay: Potentiation of rifampicin-induced antibacterial activity against Escherichia coli ATCC 25922 assessed as rifampicin MIC in low salt containing media by Mueller-Hinton broth based assay; type: functional

SMILES	MIC [µg/mL]
CCCCCCCCCCCCO[C@@H]1O[C@H](CN)[C@H](N)[C@H](OCc2ccc3ccccc3c2)[C@H]1N	0.5

test system: Escherichia coli; assay: Potentiation of rifampicin-induced antibacterial activity against Escherichia coli ATCC 25922 assessed as fold change in rifampicin MIC in low salt containing media by Mueller-Hinton broth based assay; type: functional

SMILES	fold change (FC)
CCCCCCCCCCCCO[C@@H]1O[C@H](CN)[C@H](N)[C@H](OCc2ccc3ccccc3c2)[C@H]1N	1

test system: Acinetobacter baumannii; assay: Antibacterial activity against Acinetobacter baumannii ATCC 17978 in low salt containing media by Mueller-Hinton broth based assay; type: functional

SMILES	MIC [µg/mL]
CCCCCCCCCCCCO[C@@H]1O[C@H](CN)[C@H](N)[C@H](OCc2ccc3ccccc3c2)[C@H]1N	4

test system: Escherichia coli; assay: Antibacterial activity against Escherichia coli ATCC 25922 in low salt containing media by Mueller-Hinton broth based assay; type: functional

SMILES	MIC [µg/mL]
CCCCCCCCCCCCO[C@@H]1O[C@H](CN)[C@H](N)[C@H](OCc2ccc3ccccc3c2)[C@H]1N	4

test system: Acinetobacter baumannii; assay: Potentiation of rifampicin-induced antibacterial activity against Acinetobacter baumannii ATCC 17978 assessed as rifampicin MIC in low salt containing media by Mueller-Hinton broth based assay; type: functional

SMILES	MIC [µg/mL]
CCCCCCCCCCCCO[C@@H]1O[C@H](CN)[C@H](N)[C@H](OCc2ccc3ccccc3c2)[C@H]1N	1

test system: Pseudomonas aeruginosa; assay: Potentiation of rifampicin-induced antibacterial activity against Pseudomonas aeruginosa PAO1 assessed as rifampicin MIC in low salt containing media by Mueller-Hinton broth based assay; type: functional

SMILES	MIC [µg/mL]
CCCCCCCCCCCCO[C@@H]1O[C@H](CN)[C@H](N)[C@H](OCc2ccc3ccccc3c2)[C@H]1N	2

Reference: ChEMBL document CHEMBL5584201, “Amphiphilic tribasic galactosamines potentiate rifampicin in Gram-negative bacteria at low Mg++/Ca++concentrations” (Bioorg Med Chem Lett, 2024)
